According to US20130102631A1, “NOVEL MICROBIOCIDAL DIOXIME ETHER DERIVATIVES” (SYNGENTA CROP PROTECTION LLC, priority 2010, published 2013):

Columns and labels:
[1] = test system: Puccinia recondita f. sp. tritici; assay: Puccinia recondita f. sp. tritici / wheat / leaf disc preventative (brown rust); format: in vivo; conditions: foliar, wheat leaf segments cv Kanzler, inoculated 1 day after application, assessed 7-9 days after application
Experimental: Puccinia recondita f. sp. Tritici/Wheat/Leaf Disc Preventative (Brown Rust): Wheat leaf segments cultivated variety (cv) Kanzler were placed on agar in 24-well plates and sprayed with formulated test compound diluted in water at an application rate of 200 ppm. The leaf disks were inoculated with a spore suspension of the fungus 1 day after application. The inoculated leaf segments were incubated at 19° C. and 75% relative humidity under a light regime of 12/12 h (light/dark) in a climate cabinet and the activity of a compound was assessed as percent disease control compared to untreated when an appropriate level of disease damage appears in untreated check leaf segments (7-9 days after application). […]-2.508; 5.561; 2.561; 2.513; 2.559; 2.556; 2.555; 2.374; 2.544; 2.537; 2.530; 2.525 (fraction B); 2.519; 2.516; 2.514; E/E-5.167; E/E-3.002; 2.512; E/E-2.507

[2] = test system: Puccinia recondita f. sp. tritici; assay: Puccinia recondita f. sp. tritici / wheat / leaf disc curative (brown rust); format: in vivo; conditions: foliar, wheat leaf segments cv Kanzler, 200 ppm applied 1 day after inoculation, assessed 6-8 days after application
Experimental: Puccinia recondita f. sp. tritici/Wheat/Leaf Disc Curative (Brown Rust): Wheat leaf segments cv Kanzler were placed on agar in 24-well plates. The leaf segments were inoculated with a spore suspension of the fungus. The plates were stored in darkness at 19° C. and 75% relative humidity. The formulated test compound diluted in water was applied at an application rate of 200 ppm 1 day after inoculation. […]-2.508; 5.561; 2.561; E/E-2.208; 2.513; 2.559; 2.556; 2.555; 2.374; 2.552; 2.537; 2.519; 2.516; 2.514; […].002; 2.512; E/E-2.507

[3] = test system: Phaeosphaeria nodorum (Septoria nodorum); assay: Phaeosphaeria nodorum (Septoria nodorum) / wheat / leaf disc preventative (glume blotch); format: in vivo; conditions: Parastagonospora nodorum, foliar, wheat leaf segments cv Kanzler, inoculated 2 days after application, assessed 5-7 days after application
Experimental: Phaeosphaeria nodorum (Septoria nodorum)/Wheat/Leaf Disc Preventative (Glume Blotch): Wheat leaf segments cv Kanzler were placed on agar in a 24-well plate and sprayed with formulated test compound diluted in water at an application rate of 200 ppm. The leaf disks are inoculated with a spore suspension of the fungus 2 days after application. The inoculated test leaf disks are incubated at 20° C. and 75% relative humidity under a light regime of 12/12 h (light/dark) in a climate cabinet and the activity of a compound is assessed as percent disease control compared to untreated when an appropriate level of disease damage appears in untreated check leaf disks (5-7 days after application). […]-2.508; 5.561; 2.561; E/E-2.208; P.57; 2.513; 2.559; 2.558; 2.557; 2.556; 2.555; 2.374; 2.544; 2.541; 2.539; 2.537; 2.536; 2.535; 2.533; 2.530; 2.526; 2.519; 2.510; 2.516; 2.514; E/E-5.167; E/E-3.002; 2.512

Pyrenophora teres = Pyrenophora teres / barley / leaf disc preventative (net blotch); format: in vivo; conditions: foliar, barley leaf segments cv Hasso, inoculated two days after application, assessed 5-7 days after application
Experimental: Pyrenophora teres/Barley/Leaf Disc Preventative (Net Blotch): Barley leaf segments cv Hasso are placed on agar in a 24-well plate and sprayed with formulated test compound diluted in water at an application rate of 200 ppm. The leaf segments are inoculated with a spore suspension of the fungus two days after application of the test solution. The inoculated leaf segments are incubated at 20° C. and 65% relative humidity under a light regime of 12/12 h (light/dark) in a climate cabinet and the activity of a compound is assessed as disease control compared to untreated when an appropriate level of disease damage appears in untreated check leaf segments (5-7 days after application). […]-2.507; 5.561; 2.561; E/E-2.208; P.57; 2.513; 2.559; 2.558; 2.556; 2.555; 2.374; 2.552; 2.544; 2.537; 2.533; 2.530; 2.528; 2.519; 2.510; 2.516; 2.514; E/E-5.167; E/E-3.002; 2.512

Glomerella lagenarium = Glomerella lagenarium (Colletotrichum lagenarium) / liquid culture (anthracnose); format: cell-based; conditions: Colletotrichum orbiculare; at ≦200 ppm, liquid culture PDB, inhibition of growth photometrically 3-4 days after application; read-out: control of Glomerella lagenarium
Experimental: Glomerella lagenarium (Colletotfichum lagenarium)/Liquid Culture (Anthracnose): Conidia of the fungus from cryogenic storage were directly mixed into nutrient broth (PDB potato dextrose broth). After placing a DMSO solution of test compound into a 96-well microtiter, the nutrient broth containing the fungal spores was added. The test plates were incubated at 24° C. and the inhibition of growth is measured photometrically 3-4 days after application. […]-2.509; 5.561; 2.561; E/E-2.208; P.57; 2.513; 2.559; 2.556; 2.555; 2.374; 2.552; 2.548; 2.544; 2.541; 2.540; 2.539; 2.537; 2.536; 2.533; 2.531; 2.530; 2.528; 2.526; 2.519; 2.510; 2.516; 2.514; E/E-5.167; E/E-3.002; 2.512; 2.514; Z/E-2.474

[4] = test system: Mycosphaerella arachidis (Cercospora arachidicola); assay: Mycosphaerella arachidis (Cercospora arachidicola) / liquid culture (early leaf spot); format: cell-based; conditions: at ≦200 ppm, liquid culture PDB, inhibition of growth photometrically 4-5 days after application, read-out: control of Mycosphaerella arachidis
Experimental: Mycosphaerella arachidis (Cercospora arachidicola)/Liquid Culture (Early Leaf Spot): Conidia of the fungus from cryogenic storage were directly mixed into nutrient broth (PDB potato dextrose broth). After placing a DMSO solution of test compound into a 96-well microtiter plate, the nutrient broth containing the fungal spores was added. The test plates are incubated at 24° C. and the inhibition of growth was determined photometrically 4-5 days after application. […]-2.509; 5.561; 2.561; P.57; 2.513; 2.559; 2.558; 2.557; 2.556; 2.555; 2.374; 2.553; 2.552; 2.551 (fraction B); 2.551 (fraction A); 2.544; 2.541; 2.539; 2.537; 2.536; 2.533; 2.532; 2.531; 2.530; 2.528; 2.526; 2.525 (fraction B); 2.525 (fraction A); 2.524; 2.520; 2.519; 2.510; 2.518; 2.517; 2.516; 2.514; […].002; 2.512; 2.511; 2.514

[5] = test system: Mycosphaerella graminicola (Septoria tritici); assay: Mycosphaerella graminicola (Septoria tritici) / liquid culture (Septoria blotch); format: cell-based; conditions: Zymoseptoria tritici; at ≦200 ppm, liquid culture PDB, inhibition of growth photometrically 4-5 days after application; read-out: control of Mycosphaerella graminicola
[6] = test system: Blumeria graminis f. sp. tritici (Erysiphe graminis f. sp. tritici); assay: Blumeria graminis f. sp. tritici / wheat / leaf disc preventative (powdery mildew on wheat); format: in vivo; conditions: foliar, wheat leaf segments cv. Kanzler, inoculated 1 day after application, assessed 6-8 days after application
Experimental: Blumeria graminis f. sp. tritici (Erysiphe graminis f. sp. tritici)/Wheat/Leaf Disc Preventative (Powdery Mildew on Wheat):
Wheat leaf segments cv. Kanzler were placed on agar in a 24-well plate and sprayed with the formulated test compound diluted in water at an application rate of 200 ppm. The leaf disks were inoculated by shaking powdery mildew infected plants above the test plates 1 day after application. The inoculated leaf disks were incubated at 20° C. and 60% relative humidity under a light regime of 24 h darkness followed by 12 h/12 h (dark/light) in a climate chamber and the activity of a compound was assessed as percent disease control compared to untreated when an appropriate level of disease damage appears on untreated check leaf segments (6-8 days after application). The following compounds gave at least 80% control of Blumeria graminis: E/E-2.168, E/E-2.474, E/E-2.002; 5.561; 2.561; E/E-2.208; 2.513; 2.559; 2.557; 2.556; 2.555; 2.374; 2.552; 2.537; 2.533; 2.530; 2.528; 2.526; 2.519; 2.510; 2.516; 2.514; E/E-5.167; E/E-3.002; 2.512; 2.511

Gaeumannomyces graminis = Gaeumannomyces graminis / liquid culture (take-all of cereals); format: cell-based; conditions: at ≦200 ppm, liquid culture PDB, inhibition of growth photometrically 4-5 days after application, read-out: control of Gaeumannomyces graminis
Experimental: Gaeumannomyces graminis/Liquid Culture (Take-All of Cereals): Mycelial fragments of the fungus from cryogenic storage were directly mixed into nutrient broth (PDB potato dextrose broth). After placing a DMSO solution of test compound into a 96-well microtiter plate, the nutrient broth containing the fungal spores is added. The test plates were incubated at 24° C. and the inhibition of growth was determined photometrically 4-5 days after application. […]-2.509; 5.561; 2.561; P.57; 2.513; 2.559; 2.558; 2.557; 2.556; 2.555; 2.374; 2.553; 2.552; 2.551 (fraction B); 2.551 (fraction A); 2.539; 2.533; 2.528; 2.526; 2.525 (fraction B); 2.525 (fraction A); 2.524; 2.523; 2.521; 2.520; 2.519; 2.510; 2.518; 2.516; 2.514; E/E-5.167; E/E-3.002; 2.512; E/E-2.508

[7] = test system: Monographella nivalis (Microdochium nivale); assay: Monographella nivalis (Microdochium nivale) / liquid culture (foot rot cereals); format: cell-based; conditions: at ≦200 ppm, liquid culture PDB, inhibition of growth photometrically 4-5 days after application, read-out: control of Monographella nivalis
Experimental: Monographella nivalis (Microdochium nivale)/Liquid Culture (Foot Rot Cereals): Conidia of the fungus from cryogenic storage were directly mixed into nutrient broth (PDB potato dextrose broth). After placing a DMSO solution of test compound into a 96-well microtiter plate, the nutrient broth containing the fungal spores was added. The test plates were incubated at 24° C. and the inhibition of growth was determined photometrically 4-5 days after application. […].57; 2.513; 2.559; 2.558; 2.556; 2.555; 2.374; 2.553; 2.551 (fraction B); 2.551 (fraction A); 2.548; 2.544; 2.542; 2.541; 2.539; 2.536; 2.535; 2.533; 2.530; 2.528; 2.526; 2.525 (fraction B); 2.525 (fraction A); 2.524; 2.519; 2.518; 2.516; 2.514; E/E-5.167; 2.512; 2.514

Cc1ccc2c(n1)/C(=N/OCC(C)(C)CO/N=C(\c1ccncc1)c1ccccn1)CCC2 [Compound 2.537]
≥ 80%: pest or weed control at 200 ppm [1] | pest or weed control at 200 ppm [2] | pest or weed control at 200 ppm [3] | pest or weed control at 200 ppm (Pyrenophora teres) | inhibition of growth at up to 200 µg/mL (Glomerella lagenarium) | inhibition of growth at up to 200 µg/mL [4] | inhibition of growth at up to 200 µg/mL [5] | pest or weed control at 200 ppm [6]

C/C(=N\OCC(C)(C)CO/N=C1\CCCc2c(C)cc(CF)nc21)c1cc(C)cc(C)n1 [E/E-2.208]
≥ 80%: pest or weed control at 200 ppm [2] | pest or weed control at 200 ppm [3] | pest or weed control at 200 ppm (Pyrenophora teres) | inhibition of growth at up to 200 µg/mL (Glomerella lagenarium) | pest or weed control at 200 ppm [6]

CC/C(=N/OCC(C)(C)CO/N=C1\CCCc2ccc(C)nc21)c1ncc(Cl)cc1F (single isomer, unassigned) [2.525 (fraction B)]
≥ 80%: pest or weed control at 200 ppm [1] | inhibition of growth at up to 200 µg/mL [4] | inhibition of growth at up to 200 µg/mL [5] | inhibition of growth at up to 200 µg/mL (Gaeumannomyces graminis) | inhibition of growth at up to 200 µg/mL [7]

Cc1ccc2c(n1)/C(=N/OCC(C)(C)CO/N=C/c1ncc(Cl)cc1F)CCC2 [Compound 2.552]
≥ 80%: pest or weed control at 200 ppm [2] | pest or weed control at 200 ppm (Pyrenophora teres) | inhibition of growth at up to 200 µg/mL (Glomerella lagenarium) | inhibition of growth at up to 200 µg/mL [4] | inhibition of growth at up to 200 µg/mL [5] | inhibition of growth at up to 200 µg/mL (Gaeumannomyces graminis) | pest or weed control at 200 ppm [6]

C/C(=N\OCC(C)(O)CO/N=C1\CCCc2ccc(C)nc21)c1cccc(C)n1 (stereo not drawn) [E/E-14.002]
≥ 80%: pest or weed control at 200 ppm [2] | inhibition of growth at up to 200 µg/mL [4]

Cc1ccc2c(n1)/C(=N/OCC(C)(C)CO/N=C/c1cccc(CO)n1)CCC2 [Compound 2.528]
≥ 80%: pest or weed control at 200 ppm (Pyrenophora teres) | inhibition of growth at up to 200 µg/mL (Glomerella lagenarium) | inhibition of growth at up to 200 µg/mL [4] | inhibition of growth at up to 200 µg/mL [5] | inhibition of growth at up to 200 µg/mL (Gaeumannomyces graminis) | inhibition of growth at up to 200 µg/mL [7] | pest or weed control at 200 ppm [6]

Cc1ccc2c(n1)/C(=N/OCC(C)(C)CO/N=C(\c1ccccc1)c1ccccn1)CCC2 [Compound 2.510]
≥ 80%: pest or weed control at 200 ppm [3] | pest or weed control at 200 ppm (Pyrenophora teres) | inhibition of growth at up to 200 µg/mL (Glomerella lagenarium) | inhibition of growth at up to 200 µg/mL [4] | inhibition of growth at up to 200 µg/mL [5] | inhibition of growth at up to 200 µg/mL (Gaeumannomyces graminis) | pest or weed control at 200 ppm [6]

C/C(=N\OCC(C)(C)CO/N=C1\CCCc2ccc(C)nc21)c1cccc(-c2ccccc2Cl)n1 [Compound 2.544]
≥ 80%: pest or weed control at 200 ppm [1] | pest or weed control at 200 ppm [3] | pest or weed control at 200 ppm (Pyrenophora teres) | inhibition of growth at up to 200 µg/mL (Glomerella lagenarium) | inhibition of growth at up to 200 µg/mL [4] | inhibition of growth at up to 200 µg/mL [5] | inhibition of growth at up to 200 µg/mL [7]
